Results: patent publication US11319315B2, “Cyclohexyl acid triazole azoles as LPA antagonists” (BRISTOL-MYERS SQUIBB COMPANY, priority 2017, dated 2022)
Counter-ions that a name gives are not always drawn.

Each compound was assayed against T1, human LPA1 (Homo sapiens, UniProt Q92633) (assay: LPA1 functional antagonist assay (LPA-induced calcium flux in CHO cells overexpressing human LPA1)). Conditions: inhibition of calcium flux induced by 10 nM LPA, CHO cells overexpressing human LPA1; read-out: hLPA1 IC50.
T1 construct: expressed in transfected cells; host or cells: Chinese hamster ovary (CHO) cells
T1 sequence (Q92633 whole entry): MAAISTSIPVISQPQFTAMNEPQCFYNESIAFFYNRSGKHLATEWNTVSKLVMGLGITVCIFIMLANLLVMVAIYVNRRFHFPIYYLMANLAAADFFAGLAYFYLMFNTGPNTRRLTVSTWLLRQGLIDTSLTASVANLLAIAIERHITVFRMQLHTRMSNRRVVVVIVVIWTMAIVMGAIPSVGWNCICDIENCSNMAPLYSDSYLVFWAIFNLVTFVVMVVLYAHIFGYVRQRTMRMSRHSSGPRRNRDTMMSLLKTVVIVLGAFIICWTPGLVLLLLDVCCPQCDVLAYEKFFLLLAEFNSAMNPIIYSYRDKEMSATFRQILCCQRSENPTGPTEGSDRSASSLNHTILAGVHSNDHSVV
Assay type: cell-based
Experimental: The effectiveness of compounds of the present invention as LPA1 inhibitors can be determined in an LPA1 functional antagonist assay as follows:
Chinese hamster ovary cells overexpressing human LPA1 were plated overnight (15,000 cells/well) in poly-D-lysine coated 384-well microplates (Greiner bio-one, Cat #781946) in DMEM/F12 medium (Gibco, Cat #11039). Following overnight culture, cells were loaded with calcium indicator dye (AAT Bioquest Inc, Cat #34601) for 30 minutes at 37° C. The cells were then equilibrated to room temperature for 30 minutes before the assay. Test compounds solubilized in DMSO were transferred to 384 well non-binding surface plates (Corning, Cat #3575) using the Labcyte Echo acoustic dispense and diluted with assay buffer [IX HBSS with calcium/magnesium (Gibco Cat #14025-092), 20 mM HEPES (Gibco Cat #15630-080) and 0.1% fatty acid free BSA (Sigma Cat #A9205)] to a final concentration of 0.5% DMSO. Diluted compounds were added to the cells by FDSS6000 (Hamamatsu) at final concentrations ranging from 0.08 nM to 5 μM. and were then incubated for 20 min at room temperature at which time LPA (Avanti Polar Lipids Cat #857130C) was added at final concentrations of 10 nM to stimulate the cells. The compound IC50 value was defined as the concentration of test compound which inhibited 50% of the calcium flux induced by LPA alone. IC50 values were determined by fitting data to a 4-parameter logistic equation (GraphPad Prism, San Diego Calif.).

Compound	IC50 [nM]
Cc1nc(-c2nnn(C)c2Nc2nnc(CC3CC3)o2)ccc1O[C@H]1CCC[C@H](C(=O)O)C1 [Example 276, (1 S,3S)-3-((6-(5-((5-(Cyclopropylmethyl)-1,3,4-oxadiazol-2-yl)amino)-1-methyl-1H-1,2,3-triazol-4-yl)-2-methylpyridin-3-yl)oxy)cyclohexane-1-carboxylic acid, 2 TFA salt]	446
Cc1nc(-c2nnn(C)c2Cn2nnnc2OCC2CC2)ccc1O[C@H]1CCC[C@H](C(=O)O)C1 [Example 351, (1S,3S)-3-{[6-(5-{[5-(cyclopropyl-methoxy)-1H-1,2,3,4-tetrazol-1-yl]methyl}-1-methyl-1H-1,2,3-triazol-4-yl)-2-methylpyridin-3-yl]oxy}cyclohexane-1-carboxylic acid]	152
Cc1nc(-c2nnn(C)c2CNc2noc(C3CC(F)C3)n2)ccc1O[C@H]1CCC[C@H](C(=O)O)C1 (stereo partly drawn) [Example 190]	55
CCCCc1nnc(NCc2c(-c3ccc(O[C@H]4CCC[C@H](C(=O)O)C4)c(C)n3)nnn2C)o1 [Example 53]	297
CCCOc1nnn(Cc2c(-c3ccc(O[C@H]4CCC[C@H](C(=O)O)C4)c(C)n3)nnn2C)n1 [Example 340]	97
Cc1nc(-c2nnn(C)c2CNc2ncn(CC3CC3)n2)ccc1O[C@H]1CCC[C@H](C(=O)O)C1 [Example 152]	179
Cc1nc(-c2nnn(C)c2CNc2noc(C(C)C3CC3)n2)ccc1O[C@H]1CCC[C@H](C(=O)O)C1 (stereo partly drawn) [Example 194]	25
Cc1nc(-c2nnn(C)c2CNc2nnc(C3CCCC3)o2)ccc1O[C@H]1CCC[C@H](C(=O)O)C1 [Example 48]	209
CCCCc1nc(NCc2c(-c3nc(C)c(O[C@H]4CCC[C@H](C(=O)O)C4)cc3F)nnn2C)no1 [Example 280, (1S,3S)-3-((6-(5-(((5-butyl-1,2,4-oxadiazol-3-yl)amino)methyl)-1-methyl-1H-1,2,3-triazol-4-yl)-5-fluoro-2-methylpyridin-3-yl)oxy)cyclohexane-1-carboxylic acid]	143
Cc1nc(-c2nnn(C)c2Cn2cnc(-c3ccccc3)n2)ccc1O[C@H]1CCC[C@H](C(=O)O)C1 [Example 208, (1S,3S)-3-((2-Methyl-6-(1-methyl-5-((3-phenyl-1H-1,2,4-triazol-1-yl)methyl)-1H-1,2,3-triazol-4-yl)pyridin-3-yl)oxy)cyclohexane-1-carboxylic acid]	370
CCCc1nc(Cc2c(-c3ccc(O[C@H]4CCC[C@H](C(=O)O)C4)c(C)n3)nnn2C)no1 [Example 235, (1S,3S)-3-((2-methyl-6-(1-methyl-5-((5-propyl-1,2,4-oxadiazol-3-yl)methyl)-1H-1,2,3-triazol-4-yl)pyridin-3-yl)oxy)cyclohexane-1-carboxylic acid]	59
Cc1nc(-c2nnn(C)c2CNc2nc(CC(C)C)ns2)ccc1O[C@H]1CCC[C@H](C(=O)O)C1 [Example 102]	98
Cc1nc(-c2nnn(C)c2Cn2nnc(-c3ccccc3)n2)ccc1O[C@H]1CCC[C@H](C(=O)O)C1 [Example 107]	42
Cc1nc(-c2nnn(C)c2CNc2nc(-c3ccccc3)c(C)s2)ccc1O[C@H]1CCC[C@H](C(=O)O)C1 [Example 18]	15
Cc1nc(-c2nnn(C)c2CNc2ncn(-c3cc(F)cc(F)c3)n2)ccc1O[C@H]1CCC[C@H](C(=O)O)C1 [Example 40]	46
COCCCc1nc(NCc2c(-c3ccc(O[C@H]4CCC[C@H](C(=O)O)C4)c(C)n3)nnn2C)no1 [Example 146]	103
Cc1nc(-c2nnn(C)c2CNc2cnn(C3CCC3)n2)ccc1O[C@H]1CCC[C@H](C(=O)O)C1 [Example 30]	91
Cc1nc(-c2nnn(C)c2CNc2noc(C3CCC(F)(F)C3)n2)ccc1O[C@H]1CCC[C@H](C(=O)O)C1 (stereo partly drawn) [Example 186]	79
Cc1nc(-c2nnn(C)c2Cn2nnc(C3CCOCC3)n2)ccc1O[C@H]1CCC[C@H](C(=O)O)C1 [Example 308, (1S,3S)-3-{[2-methyl-6-(1-methyl-5-{[5-(oxan-4-yl)-2H-1,2,3,4-tetrazol-2-yl]methyl}-1H-1,2,3-triazol-4-yl)pyridin-3-yl]oxy}cyclohexane-1-carboxylic acid]	714
Cc1nc(-c2nnn(C)c2CNc2noc(Cc3ccccc3)n2)ccc1O[C@H]1CCC[C@H](C(=O)O)C1 [Example 67]	14

Compound	IC50 [nM]
Cc1nc(-c2nnn(C)c2CNc2cn(CC(C)C)nn2)ccc1O[C@H]1CCC[C@H](C(=O)O)C1 [Example 23, (1 S,3 S)-3-((6-(5-(((1-isobutyl-1H-1,2,3-triazol-4-yl)amino)methyl)-1-methyl-1H-1,2,3-triazol-4-yl)-2-methylpyridin-3-yl)oxy)cyclohexane-1-carboxylic acid]	435
Cc1nc(-c2nnn(C)c2CNc2noc(C(C)C3CC3)n2)ccc1O[C@H]1CCC[C@H](C(=O)O)C1 (stereo partly drawn) [Example 193]	33
Cc1nc(-c2nnn(C)c2Cn2nnc(Cc3ccccc3)n2)ccc1O[C@H]1CCC[C@H](C(=O)O)C1 [Example 109]	14
Cc1nc(-c2nnn(C)c2Cn2nc(C3CCCC3)oc2=N)ccc1O[C@H]1CCC[C@H](C(=O)O)C1 [Example 45]	228
Cc1nc(-c2nnn(C)c2C(O)c2cn(Cc3ccccc3)nn2)ccc1O[C@H]1CCC[C@H](C(=O)O)C1 (stereo partly drawn) [Example 78, (1 S,3 S)-3-((6-(5-((1-benzyl-1H-1,2,3-triazol-4-yl)(hydroxy)methyl)-1-methyl-1H-1,2,3-triazol-4-yl)-2-methylpyridin-3-yl)oxy)cyclohexane-1-carboxylic acid]	88
Cc1nc(-c2nnn(C)c2Cn2nnc(CCC(C)C)n2)ccc1O[C@H]1CCC[C@H](C(=O)O)C1 [Example 310, (1S,3S)-3-{[2-methyl-6-(1-methyl-5-{[5-(3-methylbutyl)-2H-1,2,3,4-tetrazol-2-yl]methyl}-1H-1,2,3-triazol-4-yl)pyridin-3-yl]oxy}cyclohexane-1-carboxylic acid]	24
Cc1nc(-c2nnn(C)c2Cn2nncc2COc2ccccc2)ccc1O[C@H]1CCC[C@H](C(=O)O)C1 [Example 84]	172
Cc1nc(-c2nnn(C)c2CNc2nc(C3CCCC3)no2)ccc1O[C@H]1CCC[C@H](C(=O)O)C1 [Example 62]	43
Cn1nnc(-c2ccc(O[C@H]3CCC[C@H](C(=O)O)C3)cn2)c1Cn1nnnc1C1CCCC1 [Example 258, (1S,3S)-3-((6-(5-((5-cyclopentyl-1H-tetrazol-1-yl)methyl)-1-methyl-1H-1,2,3-triazol-4-yl)pyridin-3-yl)oxy)cyclohexane-1-carboxylic acid]	433
CCCO[C@H](C)c1nc(NCc2c(-c3ccc(O[C@H]4CCC[C@H](C(=O)O)C4)c(C)n3)nnn2C)no1 [Example 219, (1S,3S)-3-((2-methyl-6-(1-methyl-5-(((5-((R)-1-propoxyethyl)-1,2,4-oxadiazol-3-yl)amino)methyl)-1H-1,2,3-triazol-4-yl)pyridin-3-yl)oxy)cyclohexane-1-carboxylic acid]	63
Cc1nc(-c2nnn(C)c2Cn2cc(C3CC3)nn2)ccc1O[C@H]1CCC[C@H](C(=O)O)C1 [Example 267, (1S,3S)-3-((6-(5-((4-cyclopropyl-1H-1,2,3-triazol-1-yl)methyl)-1-methyl-1H-1,2,3-triazol-4-yl)-2-methylpyridin-3-yl)oxy)cyclohexane-1-carboxylic acid]	2210
Cc1nc(-c2nnn(C)c2Cn2nnc(CCC3CC3)n2)ccc1O[C@H]1CCC[C@H](C(=O)O)C1 [Example 296, (1S,3S)-3-{[6-(5-{[5-(2-cyclopropyl-ethyl)-2H-1,2,3,4-tetrazol-2-yl]methyl}-1-methyl-1H-1,2,3-triazol-4-yl)-2-methylpyridin-3-yl]oxy}cyclohexane-1-carboxylic acid]	96
Cc1nc(-c2nnn(C)c2CNc2noc(CCC(C)C)n2)ccc1O[C@H]1CCC[C@H](C(=O)O)C1 [Example 69]	15
CCCCc1nnn(Cc2c(-c3ccc(O[C@H]4CCC[C@H](C(=O)O)C4)c(C)n3)nnn2C)n1 [Example 111]	34
Cc1nc(-c2nnn(C)c2Cn2nnnc2CC2CCCC2)ccc1O[C@H]1CCC[C@H](C(=O)O)C1 [Example 315, (1S,3S)-3-{[6-(5-{[5-(cyclopentyl-methyl)-1H-1,2,3,4-tetrazol-1-yl]methyl}-1-methyl-1H-1,2,3-triazol-4-yl)-2-methylpyridin-3-yl]oxy}cyclohexane-1-carboxylic acid]	154
Cc1nc(-c2nnn(C)c2Cc2nnc(Cc3ccc(F)cc3)o2)ccc1O[C@H]1CCC[C@H](C(=O)O)C1 [Example 77]	260
Cc1nc(-c2nnn(C)c2Cn2nnc(C3CCC3)n2)ccc1O[C@H]1CCC[C@H](C(=O)O)C1 [Example 355, (1S,3S)-3-[(6-{5-[(5-cyclobutyl-2H-1,2,3,4-tetrazol-2-yl)methyl]-1-methyl-1H-1,2,3-triazol-4-yl}-2-methylpyridin-3-yl)oxy]cyclohexane-1-carboxylic acid]	32
Cc1nc(-c2nnn(C)c2CNc2nc(-c3ccccc3)cs2)ccc1O[C@H]1CCC[C@H](C(=O)O)C1 [Example 14]	130
Cc1nc(-c2nnn(C)c2CNc2noc(C(C)C)n2)ccc1O[C@H]1CCC[C@H](C(=O)O)C1 [Example 174]	223
